From patent US8309577B2, “Quinuclidine compounds as α-7 nicotinic acetylcholine receptor ligands” (Bristol-Myers Squibb Company, priority 2008, dated 2012)

Experiments:
[1] = biological target: T1, α-7 nicotinic acetylcholine receptor channel expressed in HEK 293 cells (Rattus norvegicus, UniProt Q05941); assay: Ca2+-sensitive fluorescence-based FLIPR assay, α7 nicotinic ACh receptor channel function (agonist); assay type: cell-based; settings: Table 1, HEK 293 cells, agonist Ca2+ flux
T1 construct: expressed in transfected cells
Method in brief: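 Potency and efficacy derived from kinetic FLIPR Ca²⁺-flux fluorescence, recorded 3 min after compound addition in Hanks buffer following a 10 s baseline.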

[2] = system: mucosal mast cells; settings: Kageyama-Yahara et al. 2008; cited from earlier work
[3] = FLIPR α7 activity rating (EC50, nM)

T1 sequence (Q05941 23-502): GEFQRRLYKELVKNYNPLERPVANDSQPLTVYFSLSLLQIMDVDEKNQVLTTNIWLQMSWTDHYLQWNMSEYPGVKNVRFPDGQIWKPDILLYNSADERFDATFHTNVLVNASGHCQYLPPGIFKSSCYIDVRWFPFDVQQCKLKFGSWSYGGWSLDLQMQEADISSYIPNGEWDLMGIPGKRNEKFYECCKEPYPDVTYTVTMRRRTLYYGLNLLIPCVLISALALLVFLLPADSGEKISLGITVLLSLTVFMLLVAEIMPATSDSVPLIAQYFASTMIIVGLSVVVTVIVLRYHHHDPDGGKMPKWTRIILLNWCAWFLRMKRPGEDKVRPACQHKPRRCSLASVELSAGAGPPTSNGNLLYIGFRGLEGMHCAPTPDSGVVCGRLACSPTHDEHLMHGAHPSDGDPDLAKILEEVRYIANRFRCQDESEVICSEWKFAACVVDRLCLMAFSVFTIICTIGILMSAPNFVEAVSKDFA

SMILES	EC50 [1, 3]	melting point	EC50 ([1]; FLIPR α7 (EC50, nM))	antigen-induced degranulation of mucosal mast cells [2]
c1ccc2nc(NC3=NC[C@@]4(CN5CCC4CC5)O3)cnc2c1 [Example 220]	< 100 nM	212 to 215 °C	–	–
FC(F)COc1cc(NC2=NC[C@@]3(CN4CCC3CC4)O2)ncn1 [Example 233, (R)—N-(6-(2,2-Difluoroethoxy)pyrimidin-4-yl)-4H-1′-azaspiro[oxazole-5,3′-bicyclo[2.2.2]octan]-2-amine]	< 100 nM	83 to 88 °C	–	–
COc1cccc(-c2cc(NC3=NC[C@@]4(CN5CCC4CC5)O3)ncn2)c1 [Example 238, (R)—N-(6-(3-Methoxyphenyl)pyrimidin-4-yl)-4H-1′-azaspiro[oxazole-5,3′-bicyclo[2.2.2]octan]-2-amine]	< 100 nM	80 to 85 °C	16 nM	–
CSc1cnc(NC2=NC[C@@]3(CN4CCC3CC4)O2)cn1 [Example 250, (R)—N-(5-(Methylthio)pyrazin-2-yl)-4H-1′-azaspiro[oxazole-5,3′-bicyclo[2.2.2]octan]-2-amine]	< 100 nM	155 to 160 °C	–	–
COc1ccc(/C=C2\CCCN=C2c2cccnc2)c(OC)c1 [GTS-21]	–	–	–	inhibits
